The values below are quoted from earlier work in patent US20040208906A1, “Pharmaceutical composition for topical administration” (Daiichi Suntory Pharma Co., Ltd., priority 1999, published 2004).

Data set [1] has as its system pathogens of periodontitis, including Porphyromonas gingivalis.
Data set [2] concerns Gram-positive bacteria (MSSA, Streptococcus pyogenes, Streptococcus pneumoniae, PRSP, oral streptococci, enterococci). Particulars: Gram-positive bacteria incl. MSSA.

As to `C[C@@H](O)[C@H]1C(=O)N2C(C(=O)[O-])=C([C@H]3CCCO3)S[C@H]12.[Na+]` [Compound 1, sodium (+)-(5R,6S)-6-[(R)-1-hydroxyethyl]-7-oxo-3-[(R)-2-tetrahydrofuryl]-4-thia-1-azabicyclo[3.2.0]hept-2-ene-2-carboxylate], the antibacterial activity entry in data set [1] and in data set [2] was “potent antibacterial activity” each time.
